Measured values from patent publication EP0075629A1, “Imidazole derivatives, their preparation, and their pharmaceutical compositions” (Sumitomo Chemical Industries Ltd., priority 1981, dated 1983).

What follows are compounds tested on Lewis lung carcinoma (solid) (assay: Antitumor effect on mouse experimental tumors (tumor inhibitory ratio by tumor weight)). Conditions: Dose 100 mg/kg, route i.p., schedule 5q2d (days 1, 3, 5, 7 and 9); tumors removed and weighed at day 13; BDF1 male mice.
Type: in vivo
Description: The antitumor activities of compounds of the present invention were estimated according to the methods described in "Cancer chemotheraphy reports" Part 3, Vol. 3, (No. 2) p.13 (1972).
BDF1 male mice, 5 weeks old, weighing between 18 and 22 grams were used. Each test group was composed of 6 to 7 mice. Two million cells of Lewis lung carcinoma were injected in the hind leg. The drug was administered intraperitoneally at days 1, 3, 5, 7 and 9 (or 5q2d).
After killing the mice at day 13, tumors were removed and weighed. The tumor inhibitory ratio was calculated according to the following formula: [formula]

| SMILES | Inhibition Ratio (%) Lewis lung carcinoma (solid) |
| --- | --- |
| NC(=O)c1[nH]cnc1OC(=O)c1ccc(-c2ccccc2)cc1 [5-Carbamoyl-1H-imidazole-4-yl p-phenylbenzoate] | 77.0% |
| NC(=O)c1[nH]cnc1OC(=O)C=Cc1ccc(Cl)cc1 [5-Carbamoyl-1H-imidazole-4-yl p-chlorocinnamate] | 90% |
| NC(=O)c1[nH]cnc1OC(=O)C=Cc1cccc([N+](=O)[O-])c1 [5-Carbamoyl-1H-imidazole-4-yl m-nitrocinnamate] | 90% |
| COc1ccc(C(=O)Oc2nc[nH]c2C(N)=O)cc1OC [5-Carbamoyl-1H-imidazole-4-yl 3',4'-dimethoxy-benzoate] | 83.1% |
| COc1cc(C(=O)Oc2nc[nH]c2C(N)=O)ccc1C [5-Carbamoyl-1H-imidazole-4-yl 3'-methoxy-4'-methylbenzoate] | 89.4% |
